Drawing on the supplement of paper PMC10307832, this text covers relative viability for five compounds.

The first assay concerns HOP-62. Kind of assay: relative viability (nuclei count vs DMSO), 5 days (fraction); higher = more cells survive. The following applies: first compound 0.2 µM. A digest of the protocol:
(§1)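 Dosing by pin tool came one day after lung cancer cell lines were seeded in 1536-well plates, using either one drug or a fixed anchor-drug dose plus five library-drug doses (not always all listed) in √10 steps. After 5 days, nuclei were counted on 4× images. Relative viability is treated-well nuclei count divided by vehicle-well nuclei count, and values are medians of duplicate plates.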
As to `COCC1(CO)C(=O)C2CCN1CC2` (stereo not drawn) [PRIMA-1MET] + O=C(c1cc(Cc2n[nH]c(=O)c3ccccc23)ccc1F)N1CCN(C(=O)C2CC2)CC1 [Olaparib] (partner 8 µM), the relative viability stood at 0.489.

Still in this assay, the particulars now being: first compound 0.6325 µM.
Consider `COCC1(CO)C(=O)C2CCN1CC2` (stereo not drawn) [PRIMA-1MET] + N=C(N)NC(=N)NCCc1ccccc1 [Phenformin] (partner 250 µM), for which the relative viability was 0.686.
Consider `COCC1(CO)C(=O)C2CCN1CC2` (stereo not drawn) [PRIMA-1MET] + Nc1nc2[nH]cc(CCc3ccc(C(=O)N[C@@H](CCC(=O)O)C(=O)O)cc3)c2c(=O)[nH]1 [Pemetrexed] (partner 0.2 µM), for which the relative viability was found to be 0.377.
On to `COCC1(CO)C(=O)C2CCN1CC2` (stereo not drawn) [PRIMA-1MET] + CC(=O)Nc1cccc(-n2c(=O)n(C3CC3)c(=O)c3c(Nc4ccc(I)cc4F)n(C)c(=O)c(C)c32)c1 [Trametinib] (partner 0.02 µM), for which the relative viability came out at 0.34.
As for `COCC1(CO)C(=O)C2CCN1CC2` (stereo not drawn) [PRIMA-1MET] + Nc1ncn([C@H]2C[C@H](O)[C@@H](CO)O2)c(=O)n1 [Decitabine] (partner 2 µM), the relative viability came to 0.217.
The compound `COCC1(CO)C(=O)C2CCN1CC2` (stereo not drawn) [PRIMA-1MET] + O=C(c1cc(Cc2n[nH]c(=O)c3ccccc23)ccc1F)N1CCN(C(=O)C2CC2)CC1 [Olaparib] (partner 8 µM) displayed a relative viability of 0.388.

The assay is the same for the next values; noted with them: first compound 2 µM.
`COCC1(CO)C(=O)C2CCN1CC2` (stereo not drawn) [PRIMA-1MET] + N=C(N)NC(=N)NCCc1ccccc1 [Phenformin] (partner 250 µM) displayed a relative viability of 0.648.
Still for that read-out and setting: then `COCC1(CO)C(=O)C2CCN1CC2` (stereo not drawn) [PRIMA-1MET] + Nc1nc2[nH]cc(CCc3ccc(C(=O)N[C@@H](CCC(=O)O)C(=O)O)cc3)c2c(=O)[nH]1 [Pemetrexed] (partner 0.2 µM), with 0.36; and `COCC1(CO)C(=O)C2CCN1CC2` (stereo not drawn) [PRIMA-1MET] + CC(=O)Nc1cccc(-n2c(=O)n(C3CC3)c(=O)c3c(Nc4ccc(I)cc4F)n(C)c(=O)c(C)c32)c1 [Trametinib] (partner 0.02 µM), with 0.334.
Still for that read-out and setting: then `COCC1(CO)C(=O)C2CCN1CC2` (stereo not drawn) [PRIMA-1MET] + Nc1ncn([C@H]2C[C@H](O)[C@@H](CO)O2)c(=O)n1 [Decitabine] (partner 2 µM), with 0.207; and `COCC1(CO)C(=O)C2CCN1CC2` (stereo not drawn) [PRIMA-1MET] + O=C(c1cc(Cc2n[nH]c(=O)c3ccccc23)ccc1F)N1CCN(C(=O)C2CC2)CC1 [Olaparib] (partner 8 µM), with 0.51.

Staying with this assay, now noted: first compound 6.325 µM.
As to `COCC1(CO)C(=O)C2CCN1CC2` (stereo not drawn) [PRIMA-1MET] + N=C(N)NC(=N)NCCc1ccccc1 [Phenformin] (partner 250 µM), the relative viability was 0.694.
Compound `COCC1(CO)C(=O)C2CCN1CC2` (stereo not drawn) [PRIMA-1MET] + Nc1nc2[nH]cc(CCc3ccc(C(=O)N[C@@H](CCC(=O)O)C(=O)O)cc3)c2c(=O)[nH]1 [Pemetrexed] (partner 0.2 µM) gave a relative viability of 0.377.
Same read-out and setting: then `COCC1(CO)C(=O)C2CCN1CC2` (stereo not drawn) [PRIMA-1MET] + CC(=O)Nc1cccc(-n2c(=O)n(C3CC3)c(=O)c3c(Nc4ccc(I)cc4F)n(C)c(=O)c(C)c32)c1 [Trametinib] (partner 0.02 µM), with 0.344; and `COCC1(CO)C(=O)C2CCN1CC2` (stereo not drawn) [PRIMA-1MET] + Nc1ncn([C@H]2C[C@H](O)[C@@H](CO)O2)c(=O)n1 [Decitabine] (partner 2 µM), with 0.203.
Same read-out and setting: then `COCC1(CO)C(=O)C2CCN1CC2` (stereo not drawn) [PRIMA-1MET] + O=C(c1cc(Cc2n[nH]c(=O)c3ccccc23)ccc1F)N1CCN(C(=O)C2CC2)CC1 [Olaparib] (partner 8 µM), with 0.428.

Still in this assay, the particulars now being: first compound 20 µM.
As to `COCC1(CO)C(=O)C2CCN1CC2` (stereo not drawn) [PRIMA-1MET] + N=C(N)NC(=N)NCCc1ccccc1 [Phenformin] (partner 250 µM), the relative viability worked out at 0.311.
On the same count and under the same terms, the result for `COCC1(CO)C(=O)C2CCN1CC2` (stereo not drawn) [PRIMA-1MET] + Nc1nc2[nH]cc(CCc3ccc(C(=O)N[C@@H](CCC(=O)O)C(=O)O)cc3)c2c(=O)[nH]1 [Pemetrexed] (partner 0.2 µM) reads 0.122; that for `COCC1(CO)C(=O)C2CCN1CC2` (stereo not drawn) [PRIMA-1MET] + CC(=O)Nc1cccc(-n2c(=O)n(C3CC3)c(=O)c3c(Nc4ccc(I)cc4F)n(C)c(=O)c(C)c32)c1 [Trametinib] (partner 0.02 µM), 0.364; that for `COCC1(CO)C(=O)C2CCN1CC2` (stereo not drawn) [PRIMA-1MET] + Nc1ncn([C@H]2C[C@H](O)[C@@H](CO)O2)c(=O)n1 [Decitabine] (partner 2 µM), 0.169.
The compound `COCC1(CO)C(=O)C2CCN1CC2` (stereo not drawn) [PRIMA-1MET] + O=C(c1cc(Cc2n[nH]c(=O)c3ccccc23)ccc1F)N1CCN(C(=O)C2CC2)CC1 [Olaparib] (partner 8 µM) yielded a relative viability of 0.0328.

In another assay the test system is SK-MES-1. Described as above. The following applies: first compound 0.2 µM. The method, boiled down:
as §1
For the compound `COCC1(CO)C(=O)C2CCN1CC2` (stereo not drawn) [PRIMA-1MET] + N=C(N)NC(=N)NCCc1ccccc1 [Phenformin] (partner 250 µM), the relative viability turned out to be 0.724.
Same read-out and setting: the result for `COCC1(CO)C(=O)C2CCN1CC2` (stereo not drawn) [PRIMA-1MET] + Nc1nc2[nH]cc(CCc3ccc(C(=O)N[C@@H](CCC(=O)O)C(=O)O)cc3)c2c(=O)[nH]1 [Pemetrexed] (partner 0.2 µM) reads 1.08.
On the same count and under the same terms, then `COCC1(CO)C(=O)C2CCN1CC2` (stereo not drawn) [PRIMA-1MET] + CC(=O)Nc1cccc(-n2c(=O)n(C3CC3)c(=O)c3c(Nc4ccc(I)cc4F)n(C)c(=O)c(C)c32)c1 [Trametinib] (partner 0.02 µM), with 0.609.
Same read-out and setting: then `COCC1(CO)C(=O)C2CCN1CC2` (stereo not drawn) [PRIMA-1MET] + Nc1ncn([C@H]2C[C@H](O)[C@@H](CO)O2)c(=O)n1 [Decitabine] (partner 2 µM), with 0.381; and `COCC1(CO)C(=O)C2CCN1CC2` (stereo not drawn) [PRIMA-1MET] + O=C(c1cc(Cc2n[nH]c(=O)c3ccccc23)ccc1F)N1CCN(C(=O)C2CC2)CC1 [Olaparib] (partner 8 µM), with 0.852.

The same assay, now with this note: first compound 0.6325 µM.
`COCC1(CO)C(=O)C2CCN1CC2` (stereo not drawn) [PRIMA-1MET] + N=C(N)NC(=N)NCCc1ccccc1 [Phenformin] (partner 250 µM) came in with a relative viability of 0.731.
In the case of `COCC1(CO)C(=O)C2CCN1CC2` (stereo not drawn) [PRIMA-1MET] + Nc1nc2[nH]cc(CCc3ccc(C(=O)N[C@@H](CCC(=O)O)C(=O)O)cc3)c2c(=O)[nH]1 [Pemetrexed] (partner 0.2 µM), the relative viability stood at 0.896.
The same measure, in the same setting: the result for `COCC1(CO)C(=O)C2CCN1CC2` (stereo not drawn) [PRIMA-1MET] + CC(=O)Nc1cccc(-n2c(=O)n(C3CC3)c(=O)c3c(Nc4ccc(I)cc4F)n(C)c(=O)c(C)c32)c1 [Trametinib] (partner 0.02 µM) reads 0.538; that for `COCC1(CO)C(=O)C2CCN1CC2` (stereo not drawn) [PRIMA-1MET] + Nc1ncn([C@H]2C[C@H](O)[C@@H](CO)O2)c(=O)n1 [Decitabine] (partner 2 µM), 0.32; that for `COCC1(CO)C(=O)C2CCN1CC2` (stereo not drawn) [PRIMA-1MET] + O=C(c1cc(Cc2n[nH]c(=O)c3ccccc23)ccc1F)N1CCN(C(=O)C2CC2)CC1 [Olaparib] (partner 8 µM), 0.66.

Staying with this assay, now noted: first compound 2 µM.
`COCC1(CO)C(=O)C2CCN1CC2` (stereo not drawn) [PRIMA-1MET] + N=C(N)NC(=N)NCCc1ccccc1 [Phenformin] (partner 250 µM) registered a relative viability of 0.722.
In turn, `COCC1(CO)C(=O)C2CCN1CC2` (stereo not drawn) [PRIMA-1MET] + Nc1nc2[nH]cc(CCc3ccc(C(=O)N[C@@H](CCC(=O)O)C(=O)O)cc3)c2c(=O)[nH]1 [Pemetrexed] (partner 0.2 µM) gave a relative viability of 0.901.
